From patent US12583851B2, “Heteroaryl-substituted pyrazine derivatives as pesticides” (Elanco Animal Health GmbH, priority 2019, dated 2026)

Key:
Format in all cases: in vivo
[1] = test system: larvae of the banded cucumber beetle (Diabrotica balteata); assay: Diabrotica balteata spray test; settings: 168 h, after 7 days, read-out: efficacy (seedling growth); for pest or weed control at 32 µg/disc, 100 g/ha: 100 g/ha (=32 μg/well); for pest or weed control at 6.4 µg/disc, 20 g/ha: 20 g/ha (=6.4 μg/well)
Description: Diabrotica balteata—Spray Test
Solvent: 78.0 parts by weight of acetone • • 1.5 parts by weight of dimethylformamide
(§1) Emulsifier: alkylarylpolyglycol ether
(§2) To produce a suitable preparation of active compound, 1 part by weight of active compound is mixed with the stated amount of solvent, and the concentrate is diluted with water, containing an emulsifier concentration of 1000 ppm, to the desired concentration. Further test concentrations are prepared by dilution with emulsifier containing water.
Soaked wheat seeds (Triticum aestivum) are placed in a multiple well plate filled with agar and some water and are incubated for 1 day to germinate (5 seeds per well). The germinated wheat seeds are sprayed with a test solution containing the desired concentration of the active ingredient. Afterwards each unit is infected with 10-20 larvae of the banded cucumber beetle (Diabrotica balteata).
After 7 days efficacy in % is determined. 100% means all the seedlings have grown up like in the untreated, uninfected control; 0% means none of the seedlings have grown.

[2] = test system: fall armyworm larvae (Spodoptera frugiperda); assay: Spodoptera frugiperda spray test; settings: 168 h, maize leaf sections, after 7 days
Description: Spodoptera fruaiperda—Spray Test
Solvent: 78.0 parts by weight acetone • 1.5 parts by weight dimethylformamide
as §1
as §2, with “solvents” for “solvent,”, “and” for “and the concentrate”
Maize (Zea mays) leaf sections are sprayed with a preparation of the active ingredient of the desired concentration. Once dry, the leaf sections are infested with fall armyworm larvae (Spodoptera frugiperda).
After 7 days mortality in % is determined. 100% means all caterpillars have been killed and 0% means none of the caterpillars have been killed.

[3] = test system: Rhipicephalus (Boophilus) microplus larvae (strain Parkhurst, resistant against synthetic pyrethroids); assay: Rhipicephalus (Boophilus) microplus in-vitro contact test, larval cattle tick; settings: after 48 hours, read-out: efficacy (larvae dead or moribund); for pest or weed control at 1 µg/cm2, 100 g/ha: 1 μg/cm^2 (=100 g/ha); for pest or weed control at 5 µg/cm2, 500 g/ha: 5 μg/cm^2 (=500 g/ha)
Description: Rhipicephalus (Boophilus) microplus—In-Vitro Contact Tests Larval Cattle Tick (Strain Parkhurst, Resistant Against Synthetic Pyrethroids)
9 mg compound is solved in 1 mL acetone and diluted with acetone to the desired concentration. […] the test solution is filled in 25 mL glass test tubes and homogeneously distributed on the inner walls by rotation and tilting on a shaking device (2 h at 30 rpm). With a compound concentration of 900 ppm, an inner surface of 44.7 cm^2 and a homogeneous distribution, a dose of 5 μg/cm^2 is achieved.
After the solvent has evaporated, each test tube is filled with 20-50 cattle tick larvae (Rhipicephalus microplus), closed with a perforated lid and incubated in a horizontal position at 85% relative humidity and 27° C. in an incubator. After 48 hours efficacy is determined. The larvae are patted on the ground of the tubes and negative geotactic behaviour is recorded.
An efficacy of 100% means all larvae are dead or moribund; 0% means no larvae are dead or moribund.

SMILES: CCN(C)C(=O)c1ccc(-c2nccnc2C(C)NC(=O)c2cc(Cl)cc(OC(F)(F)F)c2)nc1 (racemic) [Example I-36, (rac)-6-(3-{1-[3-Chloro-5-(trifluoromethoxy)benzamido]ethyl}pyrazin-2-yl)-N-ethyl-N-methylpyridine-3-carboxamide]
- pest or weed control at 32 µg/disc, 100 g/ha [1]: 100%
- mortality at 100 g/ha [2]: 100%

SMILES: CC(NC(=O)c1cc(Cl)cc(C(F)(F)F)c1)c1nccnc1-n1cc(C#N)cn1 (racemic) [Example I-105, (rac)-3-Chloro-N-{1-[3-(4-cyano-1H-pyrazol-1-yl)pyrazin-2-yl]ethyl}-5-(trifluoromethyl)benzamide]
- pest or weed control at 32 µg/disc, 100 g/ha [1]: 100%
- mortality at 100 g/ha [2]: 100%

SMILES: CC(NC(=O)c1cc(C(F)(F)F)cc(C(F)(F)F)c1)c1nccnc1-c1ccc(C(=O)N(C)CC#N)cn1 (racemic) [Example I-39, (rac)-6-(3-{1-[3,5-Bis(trifluoromethyl)benzamido]ethyl}pyrazin-2-yl)-N-(cyanomethyl)-N-methylpyridine-3-carboxamide]
- pest or weed control at 32 µg/disc, 100 g/ha [1]: 100%
- mortality at 100 g/ha [2]: 100%

SMILES: Cc1cnc(C(C)NC(=O)c2cc(C(F)(F)F)cc(C(F)(F)F)c2)c(-c2ncc(C(=O)N(C)CC3CC3)s2)n1 (racemic) [Example I-125, (rac)-2-(3-{1-[3,5-Bis(trifluoromethyl)benzamido]ethyl}-6-methylpyrazin-2-yl)-N-(cyclopropylmethyl)-N-methyl-1,3-thiazole-5-carboxamide]
- pest or weed control at 1 µg/cm2, 100 g/ha [3]: 100%
- pest or weed control at 5 µg/cm2, 500 g/ha [3]: 100%
- mortality at 100 g/ha [2]: 100%

SMILES: CC(NC(=O)c1cc(C(F)(F)F)cc(C(F)(F)F)c1)c1nccnc1-n1cc(C(=O)N(C)C(C)C)cn1 (racemic) [Example I-136, (rac)-1-(3-{1-[3,5-Bis(trifluoromethyl)benzamido]ethyl}pyrazin-2-yl)-N-methyl-N-(propan-2-yl)-1H-pyrazole-4-carboxamide]
- pest or weed control at 1 µg/cm2, 100 g/ha [3]: 100%
- pest or weed control at 5 µg/cm2, 500 g/ha [3]: 100%
- mortality at 100 g/ha [2]: 100%

SMILES: CC(NC(=O)c1cc(Br)cc(Br)c1)c1nccnc1-n1cc(C#N)cn1 (racemic) [Example I-106, (rac)-3,5-Dibromo-N-{1-[3-(4-cyano-1H-pyrazol-1-yl)pyrazin-2-yl]ethyl}benzamide]
- pest or weed control at 6.4 µg/disc, 20 g/ha [1]: 100%
- pest or weed control at 32 µg/disc, 100 g/ha [1]: 100%
- mortality at 100 g/ha [2]: 100%

SMILES: CC(NC(=O)c1cc(Br)cc(OC(F)(F)F)c1)c1nccnc1-n1cc(C(=O)N(C)C(C)C)cn1 (racemic) [Example I-137, (rac)-1-(3-{1-[3-Bromo-5-(trifluoromethoxy)benzamido]ethyl}pyrazin-2-yl)-N-methyl-N-(propan-2-yl)-1H-pyrazole-4-carboxamide]
- pest or weed control at 1 µg/cm2, 100 g/ha [3]: 100%
- pest or weed control at 5 µg/cm2, 500 g/ha [3]: 100%
- mortality at 100 g/ha [2]: 100%

SMILES: CC(NC(=O)c1cc(C(F)(F)F)cc(C(F)(F)F)c1)c1nccnc1-c1ncc(C(=O)N2CCOCC2)s1 (racemic) [Example I-58, (rac)-N-[1-{3-[5-(Morpholine-4-carbonyl)-1,3-thiazol-2-yl]pyrazin-2-yl}ethyl]-3,5-bis(trifluoromethyl)benzamide]
- pest or weed control at 1 µg/cm2, 100 g/ha [3]: 100%
- pest or weed control at 5 µg/cm2, 500 g/ha [3]: 90%
- mortality at 100 g/ha [2]: 100%

SMILES: CCN(C)C(=O)c1cnc(-c2nc(C)cnc2C(C)NC(=O)c2cc(C(F)(F)F)cc(C(F)(F)F)c2)s1 (racemic) [Example I-152, (rac)-2-(3-{1-[3,5-Bis(trifluoromethyl)benzamido]ethyl}-6-methylpyrazin-2-yl)-N-ethyl-N-methyl-1,3-thiazole-5-carboxamide]
- pest or weed control at 6.4 µg/disc, 20 g/ha [1]: 100%
- pest or weed control at 32 µg/disc, 100 g/ha [1]: 100%
- mortality at 100 g/ha [2]: 100%

SMILES: CC(NC(=O)c1cc(Cl)cc(OC(F)(F)F)c1)c1nccnc1-c1ccc(C(F)(F)F)cn1 (racemic) [Example I-47, (rac)-3-Chloro-5-(trifluoromethoxy)-N-[1-{3-[5-(trifluoromethyl)pyridin-2-yl]pyrazin-2-yl}ethyl]benzamide]
- mortality at 100 g/ha [2]: 100%

SMILES: CCN(C)C(=O)c1cnc(-c2ncc(C)nc2[C@H](C)NC(=O)c2cc(C(F)(F)F)nc(C(F)(F)F)c2)s1 [Example I-159, (+)-N-[(1S)-1-(3-(5-[ethyl(methyl)carbamoyl]-1,3-thiazol-2-yl)-6-methylpyrazin-2-yl)ethyl]-2,6-bis(trifluoromethyl)pyridine-4-carboxamide]
- mortality at 100 g/ha [2]: 100%

SMILES: CCS(=O)(=O)c1cc(Cl)cc(C(=O)NC(C)c2nccnc2-n2cc(C#N)cn2)c1 (racemic) [Example I-122, (rac)-3-Chloro-N-{1-[3-(4-cyano-1-pyrazol-1-yl)pyrazin-2-yl]ethyl}-5-(ethanesulfonyl)benzamide]
- pest or weed control at 1 µg/cm2, 100 g/ha [3]: 90%
- mortality at 100 g/ha [2]: 100%

SMILES: CC(NC(=O)c1cc(Cl)cc(OC(F)(F)F)c1)c1nccnc1-c1ncc(C(=O)N2CCOCC2)s1 (racemic) [Example I-60, (rac)-3-Chloro-N-[1-{3-[5-(morpholine-4-carbonyl)-1,3-thiazol-2-yl]pyrazin-2-yl}ethyl]-5-(trifluoromethoxy)benzamide]
- mortality at 100 g/ha [2]: 83%

SMILES: CC(NC(=O)c1cc(OC(F)F)cc(C2CC2)c1)c1nccnc1-c1ncc(C(=O)N(C)CC#N)s1 (racemic) [Example I-142, (rac)-N-(Cyanomethyl)-2-(3-{1-[3-cyclopropyl-5-(difluoromethoxy)benzamido]ethyl}pyrazin-2-yl)-N-methyl-1,3-thiazole-5-carboxamide]
- pest or weed control at 32 µg/disc, 100 g/ha [1]: 100%
- mortality at 100 g/ha [2]: 100%

SMILES: CC(NC(=O)c1cc(C(F)(F)F)cc(C(F)(F)F)c1)c1nccnc1-c1ncc(C(=O)N(C)CC#N)s1 (racemic) [Example I-67, (rac)-2-(3-{1-[3,5-Bis(trifluoromethyl)benzamido]ethyl}pyrazin-2-yl)-N-(cyanomethyl)-N-methyl-1,3-thiazole-5-carboxamide]
- pest or weed control at 32 µg/disc, 100 g/ha [1]: 100%
- mortality at 100 g/ha [2]: 100%

SMILES: CC(NC(=O)c1cc(Br)cc(OC(F)(F)F)c1)c1nccnc1-c1ccc(Cl)cn1 (stereo not shown) [Example I-22]
- pest or weed control at 6.4 µg/disc, 20 g/ha [1]: 100%
- pest or weed control at 32 µg/disc, 100 g/ha [1]: 100%
- mortality at 100 g/ha [2]: 100%

SMILES: CC(NC(=O)c1cc(Br)cc(C#N)c1)c1nccnc1-n1cc(Cl)cn1 (racemic) [Example I-98, (rac)-3-Bromo-N-{1-[3-(4-chloro-1H-pyrazol-1-yl)pyrazin-2-yl]ethyl}-5-cyanobenzamide]
- pest or weed control at 6.4 µg/disc, 20 g/ha [1]: 100%
- pest or weed control at 32 µg/disc, 100 g/ha [1]: 100%
- mortality at 100 g/ha [2]: 100%

SMILES: CCN(C)C(=O)c1cnc(-c2ncc(C)nc2C(C)NC(=O)c2cc(C(F)(F)F)cc(C(F)(F)F)c2)s1 (racemic) [Example I-148, (rac)-2-(3-{1-[3,5-Bis(trifluoromethyl)benzamido]ethyl}-5-methylpyrazin-2-yl)-N-ethyl-N-methyl-1,3-thiazole-5-carboxamide]
- mortality at 100 g/ha [2]: 100%

SMILES: CC(NC(=O)c1cc(Cl)cc(S(=O)(=O)c2ccc(F)cc2)c1)c1nccnc1-n1cc(C#N)cn1 (racemic) [Example I-128, (rac)-3-Chloro-N-{1-[3-(4-cyano-1H-pyrazol-1-yl)pyrazin-2-yl]ethyl}-5-(4-fluorobenzene-1-sulfonyl)benzamide]
- pest or weed control at 1 µg/cm2, 100 g/ha [3]: 90%
- pest or weed control at 5 µg/cm2, 500 g/ha [3]: 80%
- mortality at 100 g/ha [2]: 100%
